Experimental data from PMC4052943 (BioMed Research International, 2014).
Where two headings read alike, the source gives them in different places.

Experiments:
[1] = tested on: BP-induced DNA adducts (rat liver microsomes, st-DNA); assay: Microsomal BP-DNA adducts, 32P-postlabeling; type: biochemical; settings: for BP-induced DNA adducts: BP 1 μM, rat liver microsomes, st-DNA
Protocol: st-DNA (300 μg/mL) was preincubated with 50 mM Tris-HCl (pH 7.5), 1 mM MgCl2, 2.5 mM glucose-6-phosphate, 1 U/mL G6PDH, 0.5 mM NADP+, and α-naphthoflavone-induced rat liver microsomal proteins (1 mg/mL) in 1 mL for 10 min, in the presence of vehicle alone and PC and EA at 20 and 40 μM. […] The incubation was continued for another 30 min at 37°C and then reaction was terminated by the addition of EDTA and centrifugation (9,000 g; 10 min). DNA was isolated from the supernatant by removal of RNA and proteins by digestions with RNases A and T1 and proteinase K and a series of extractions with phenol, phenol: Sevag (chloroform : isoamyl alcohol, 24 : 1), and Sevag, followed by precipitation of the DNA with ethanol. The DNA concentration was estimated spectrophotometrically.
DNA adducts were analyzed by ^32P-postlabeling as described earlier. Briefly, 10 μg of DNA was digested with micrococcal nuclease and spleen phosphodiesterase (MN/SPD). Before further treatment with nuclease P1 to enrich DNA adducts, an aliquot was removed for evaluation of normal nucleotide levels. DNA adducts and normal nucleotides were labelled with [γ-^32P]ATP and T4 polynucleotide kinase. Labelled adducts were separated by multidirectional polyethyleneimine (PEI)-cellulose TLC using the following solvents: D1, 1.0 M sodium phosphate, pH 6.0; D3, 4 M lithium formate/7 M urea, pH 3.5; D4, 4 M ammonium hydroxide/isopropanol (1 : 0.9); and D5, 1.7 M sodium phosphate, pH 6.0. Normal nucleotides were resolved in 180 mM sodium phosphate, pH 6.0, by one-directional PEI-cellulose TLC. DNA adducts and normal nucleotides were detected and quantified by Packard InstantImager.

[2] = tested on: Salmonella typhimurium TA98; assay: Ames antimutagenicity assay (preincubation); settings: for inhibition at 50 µM / inhibition at 100 µM / inhibition at 250 µM / inhibition at 500 µM: Salmonella enterica, TYPHIMURIUM;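 for all read-outs here: test compound and mutagen preincubated 30 min at 37°C before adding bacteria, then His+ revertant colonies counted after 48 h plating, inhibition relative to mutagen-only versus negative-control revertants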
Protocol: (§1) In the preincubation experiment, test compounds and mutagen, each having a volume of 0.1 mL of varying concentrations, were preincubated at 37°C for 30 min and then 0.1 mL of 1 × 10^7 CFU/mL density of the bacterial culture was added, followed by the addition of 2.5 mL of top agar at 45°C (containing 0.5% NaCl and 0.6% agar) supplemented with 0.5 mM histidine-biotin. […] The combined solutions were vortexed and poured onto minimal glucose plates (40% glucose solution and Vogel Bonner medium). The plates were incubated at 37°C for 48 h and the numbers of histidine-independent revertants colonies were scored.
(§2) Survival of the bacteria was routinely monitored for each experiment. Parallel controls were run with compounds alone at all concentrations to test the possible toxicity. The concentrations of the test samples for investigating the antimutagenicity were 50, 100, 200, and 500 μM. […] All the test samples and mutagens were dissolved in DMSO (final conc., 0.01%). […] Plates were set up in triplicate for each concentration and the entire experiment was repeated three times. Inhibition of mutagenicity was expressed as percentage decrease of reverse mutation and calculated as (1) Percent inhibition=[(a−b)/(a−c)]×100, where a = number of histidine revertants induced by mutagen, b = number of histidine revertants induced by mutagen in the presence of test compound, and c = number of revertants induced in negative control.

[3] = tested on: Salmonella typhimurium TA102; assay: Ames antimutagenicity assay (preincubation); settings: Salmonella enterica, TYPHIMURIUM;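 note: compound and mutagen preincubated 30 min at 37 °C before adding bacteria, His+ revertant colonies counted after 48 h at 37 °C, inhibition relative to mutagen-alone minus negative-control revertants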
Protocol: as §1, §2

## O=C1O[C@H]2[C@@H]3OC(=O)c4cc(O)c(O)c(O)c4-c4c(O)c(O)c5oc(=O)c6c(c(O)c(O)c7oc(=O)c4c5c76)-c4c(cc(O)c(O)c4O)C(=O)OC[C@H]3OC(O)[C@@H]2OC(=O)c2cc(O)c(O)c(O)c2-c2c1cc(O)c(O)c2O (mixture of isomers) [Punicalagin]
[1]; 20 μM test compound
  BP-induced DNA adducts: 42.9 ± 16 DNA adducts/10^8 nucleotides
[1]; 40 μM test compound
  BP-induced DNA adducts: 7.2 ± 6.1 DNA adducts/10^8 nucleotides
[1]; 40 μM, BP with rat liver microsomes, cofactors, DNA
  inhibition of BP-induced DNA adducts: 97%
[2]; read-out: % inhibition of mutagenicity, TA 98, 50 μM + 2AF, S9
  inhibition at 50 µM: 20.5%
[2]; read-out: % inhibition of mutagenicity, TA 98, 50 μM + BP, S9
  inhibition at 50 µM: 22.1%
[2]; read-out: % inhibition of mutagenicity, TA 98, 50 μM + MMS, no S9
  inhibition at 50 µM: 29.4%
[2]; read-out: % inhibition of mutagenicity, TA 98, 100 μM + 2AF, S9
  inhibition at 100 µM: 37.5%
[2]; read-out: % inhibition of mutagenicity, TA 98, 100 μM + BP, S9
  inhibition at 100 µM: 46.6%
[2]; read-out: % inhibition of mutagenicity, TA 98, 100 μM + MMS, no S9
  inhibition at 100 µM: 46.3%
[2]; read-out: % inhibition of mutagenicity, TA 98, 100 μM + NaN3, no S9
  inhibition at 100 µM: 30%
[2]; read-out: % inhibition of mutagenicity, TA 98, 250 μM + BP, S9
  inhibition at 250 µM: 74.8%
[2]; read-out: % inhibition of mutagenicity, TA 98, 250 μM + MMS, no S9
  inhibition at 250 µM: 59.2%
[2]; read-out: % inhibition of mutagenicity, TA 98, 250 μM + NaN3, no S9
  inhibition at 250 µM: 52.2%
[2]; read-out: % inhibition of mutagenicity, TA 98, 500 μM + 2AF, S9
  inhibition at 500 µM: 81.4%
[2]; read-out: % inhibition of mutagenicity, TA 98, 500 μM + BP, S9
  inhibition at 500 µM: 78.8%
[2]; read-out: % inhibition of mutagenicity, TA 98, 500 μM + MMS, no S9
  inhibition at 500 µM: 71%
[2]; read-out: % inhibition of mutagenicity, TA 98, 500 μM + NaN3, no S9
  inhibition at 500 µM: 65.3%
[2]; TA 98, 50 μM + 2AF, S9
  Number of His+ revertants colonies/plate: 210.3 ± 10.7 colonies/plate
[2]; TA 98, 50 μM + BP, S9
  Number of His+ revertants colonies/plate: 138.0 ± 8.7 colonies/plate
[2]; TA 98, 50 μM + MMS, no S9
  Number of His+ revertants colonies/plate: 50.3 ± 1.8 colonies/plate
[2]; TA 98, 100 μM + 2AF, S9
  Number of His+ revertants colonies/plate: 172.3 ± 12.0 colonies/plate
[2]; TA 98, 100 μM + BP, S9
  Number of His+ revertants colonies/plate: 105.3 ± 9.0 colonies/plate
[2]; TA 98, 100 μM + MMS, no S9
  Number of His+ revertants colonies/plate: 45.3 ± 2.0 colonies/plate
[2]; TA 98, 100 μM + NaN3, no S9
  Number of His+ revertants colonies/plate: 47.3 ± 1.8 colonies/plate
[2]; TA 98, 250 μM + BP, S9
  Number of His+ revertants colonies/plate: 65.0 ± 6.8 colonies/plate
[2]; TA 98, 250 μM + MMS, no S9
  Number of His+ revertants colonies/plate: 39.7 ± 2.0 colonies/plate
[2]; TA 98, 250 μM + NaN3, no S9
  Number of His+ revertants colonies/plate: 40.7 ± 2.6 colonies/plate
[2]; TA 98, 500 μM + 2AF, S9
  Number of His+ revertants colonies/plate: 65.3 ± 4.1 colonies/plate
[2]; TA 98, 500 μM + BP, S9
  Number of His+ revertants colonies/plate: 52.7 ± 4.3 colonies/plate
[2]; TA 98, 500 μM + MMS, no S9
  Number of His+ revertants colonies/plate: 35.0 ± 2.1 colonies/plate
[2]; TA 98, 500 μM + MMS, no S9, 500 µM
  % inhibition of mutagenicity: 70.9%
[2]; TA 98, 500 μM + NaN3, no S9
  Number of His+ revertants colonies/plate: 36.0 ± 1.7 colonies/plate
[3]; read-out: % inhibition of mutagenicity, TA 102, 50 μM + 2AF, S9
  inhibition at 50 µM: 38.7%
[3]; read-out: % inhibition of mutagenicity, TA 102, 50 μM + BP, S9
  inhibition at 50 µM: 15.8%
[3]; read-out: % inhibition of mutagenicity, TA 102, 50 μM + MMS, no S9
  inhibition at 50 µM: 17.5%
[3]; read-out: % inhibition of mutagenicity, TA 102, 50 μM + NaN3, no S9
  inhibition at 50 µM: 18%
[3]; read-out: % inhibition of mutagenicity, TA 102, 100 μM + 2AF, S9
  inhibition at 100 µM: 54.8%
[3]; read-out: % inhibition of mutagenicity, TA 102, 100 μM + BP, S9
  inhibition at 100 µM: 28%
[3]; read-out: % inhibition of mutagenicity, TA 102, 100 μM + MMS, no S9
  inhibition at 100 µM: 30.8%
[3]; read-out: % inhibition of mutagenicity, TA 102, 100 μM + NaN3, no S9
  inhibition at 100 µM: 17.6%
[3]; read-out: % inhibition of mutagenicity, TA 102, 250 μM + BP, S9
  inhibition at 250 µM: 58.6%
[3]; read-out: % inhibition of mutagenicity, TA 102, 250 μM + MMS, no S9
  inhibition at 250 µM: 50.8%
[3]; read-out: % inhibition of mutagenicity, TA 102, 250 μM + NaN3, no S9
  inhibition at 250 µM: 42.2%
[3]; read-out: % inhibition of mutagenicity, TA 102, 500 μM + 2AF, S9
  inhibition at 500 µM: 81.6%
[3]; read-out: % inhibition of mutagenicity, TA 102, 500 μM + BP, S9
  inhibition at 500 µM: 76.2%
[3]; read-out: % inhibition of mutagenicity, TA 102, 500 μM + MMS, no S9
  inhibition at 500 µM: 74.1%
